Assays:
HSVEC [1] = experiment: (§1) Inhibitory activity against tumor necrosis factor-alpha (TNF-alpha) induced vascular cell adhesion molecule-1 (VCAM-1) in human endothelial cells; assay type: functional
HSVEC [2] = experiment: as §1; assay type: functional, cell-based

SMILES	Inhibition (HSVEC [1]) [%]	IC50 (HSVEC [2]) [nM]
CCCCC/C=C\C[C@H]1O[C@H]1C/C=C\C/C=C\CCCC(=O)O	31	–
CCCCCCCCC1OC1C/C=C\CCCCOCC(=O)O (centres undefined)	3	–
CCCCCCCCC1OC1CC#CCCCCCCC(=O)O (centres undefined)	28	–
O=C(O)CCCCCC/C=C\CCOCCCCCCCCCOc1ccc(I)cc1	52	–
CCCCC/C=C\CC1OC1C/C=C\C/C=C\CCCC(=O)O (centres undefined)	39	–
CCCCCCCCc1cocc1C/C=C\CCCCCCC(=O)O	50	–
CCCCCCCCCOCC/C=C\CCCCCCC(=O)NS(C)(=O)=O	1	–
CCCCCCCC[C@@H]1O[C@@H]1C/C=C\CCCCC(=O)O	17	–
O=C(O)CCCCCC/C=C\CC1OC1CCCCCCCCO (centres undefined)	36	–
O=C(O)CCCCCC/C=C\CCOCCCCCCCCCO	27	–
CCCCCCCCCOCC/C=C\CCCCCCC(=O)O	48	45
CCCCCCCCC1OC1CCCCCCCCCC(=O)O (centres undefined)	36	–
CCCCC/C=C\CC1SC1C/C=C\C/C=C\CCCC(=O)O (centres undefined)	65	–
CCCCCCCCC1OC1C/C=C\CCCCCCC(=O)NS(=O)(=O)c1ccccc1 (centres undefined)	33	–
CCCCC/C=C\CC1OC1CCCCCCCCCC(=O)O (centres undefined)	13	–
CCCCC/C=C\C[C@@H]1O[C@@H]1C/C=C\C/C=C\CCCC(=O)O	35	–

SMILES	Inhibition (HSVEC [1]) [%]	IC50 (HSVEC [2]) [nM]
CCCCC/C=C\CC1OC1C/C=C\CCCCCCC(=O)O (centres undefined)	10	–
CCCCCCCCC1OC1C/C=C\CCCCCCCO (centres undefined)	32	–
CCCCCCCC[C@H]1O[C@H]1C/C=C\CCCCC(=O)O	13	–
CCCCCCCCC1OC1CCCC/C=C\CCCC(=O)O (centres undefined)	31	–
CC(=O)NCCCCCCCCCOCC/C=C\CCCCCCC(=O)O	63	–
CCCCCCCCC1CC1C/C=C\CCCCCCC(=O)O (centres undefined)	31	–
CCCCC/C=C\CC1OC1CCCC/C=C\CCCC(=O)O (centres undefined)	30	–
CCCCCCCCC1OC1CC/C=C\CCCCCC(=O)O (centres undefined)	13	–
CCCCCCCCCCC1OC1C/C=C\CCCCCCC(=O)O (centres undefined)	-1	–
CCCCCCCCC1OC1C/C=C\CCCCCCC(=O)O (stereo in doubt; 9)	69	60
CCCCCCCCC1OC1C/C=C\CCCCCCC(=O)O (stereo in doubt; 11)	58	–
CCCCCCCCC1SC1C/C=C\CCCCCCC(=O)O (stereo in doubt; 15)	49	–
CCCCCCCCC1SC1C/C=C\CCCCCCC(=O)O (stereo in doubt; 16)	26	–
CCCCCCCCC1OC1C/C=C\CCCCCCC(=O)O (stereo in doubt; 21)	1	–
CCCCCCCCC1OC1C/C=C\CCCCCCC(=O)NS(C)(=O)=O (stereo in doubt; 29)	29	–
CCCCCCCCC1OC1C/C=C\CCCCCCC(=O)NS(C)(=O)=O (stereo in doubt; 30)	31	–

Reference: ChEMBL document CHEMBL1136359, “11,12-epoxyeicosatrienoic acid (11,12-EET): structural determinants for inhibition of TNF-alpha-induced VCAM-1 expression” (Bioorg Med Chem Lett, 2003)
